Consider 16 compounds from patent US20080293727A1, “Novel sulfonamide inhibitors of aspartyl protease” (priority 1992, published 2008).

Structures can show the parent of a compound that is named as a salt. Where two headings read alike, the source gives them in different places. Some results are limits rather than exact numbers.

Assay [1] addresses HIV-1 protease (Human immunodeficiency virus type 1 group M subtype B, UniProt P04585). In words: Inhibition constants against HIV-1 protease (method of Pennington et al.). Type of assay: biochemical. From the text: We measured the inhibition constants of the compounds listed in Table VII against HIV-1 protease using the above-cited method of Pennington et al.
Assay [2] concerns HIVIIIb in CCRM-CEM cells. The assay can be described thus: Anti-viral potency in CCRM-CEM cells acutely infected with HIVIIIb, extracellular p24 antigen readout (method of Meek et al.). Type of assay: cell-based, HIV-1. How it is done: Compounds of formula I were tested for their antiviral potency in several virological assays.
The effect of the compounds on inhibiting the replication of the virus was measured by determining the HIV extracellular p24 antigen concentration using a commercial enzyme immunoassay (obtained from Coulter Corporation, Hialeah, Fla.).
In Table VIII, the following classifications have been employed: • A: inhibits HIV replication at concentration of 100 nM or less. • B: inhibits HIV replication at concentration of between 101 and 1,000 nM. • C: inhibits HIV replication at a concentration of between 1,001 and 10,000 nM. • D: inhibits HIV replication at a concentration of between 10,001 and 40,000 nM. • ND: not tested.

Setting [3] is: HIV-1 protease, read-out: Ki value.
The mark [4] stands for this setting: Human immunodeficiency virus 1, read-out: IC90 Range.
The mark [5] stands for this setting: CCRM-CEM cells, HIV replication, read-out: IC90 Range.
Where [6] appears, read: Human immunodeficiency virus 1, CCRM-CEM cells, HIV replication, read-out: IC90 Range.

`CC(=O)Nc1ccc(S(=O)(=O)N(CC(C)C)CC(O)C(Cc2ccccc2)NC(=O)OC2CCOC2)cc1` [Compound 86, N-(4-(((2 syn,3S)-2-Hydroxy-4-phenyl-3-((R)-tetrahydrofuran-3-yloxycarbonylamino)-butyl)-isobutyl-sulfamoyl-phenyl)-acetamide and N-(4-(((2 syn,3S)-2-Hydroxy-4-phenyl-3-((S)-tetrahydrofuran-3-yloxycarbonylamino)-butyl)-isobutyl-sulfamoyl)-phenyl)-acetamide]: the Ki in assay [1] (setting [3]) was 5 nM. In addition, the IC90 in assay [2] (setting [4]) was in the range of 101 to 1000 nM.

For `CC(C)CN(C[C@@H](O)[C@H](Cc1ccccc1)NC(=O)C(CC(N)=O)C(=O)OCc1ccccn1)S(=O)(=O)c1ccc(F)cc1` (stereo partly drawn) [Compound 26, N-1-(3-((4-Fluoro-benzenesulfonyl)-isobutyl-amino)-(1S,2 syn)-1-benzyl-2-hydroxy-propyl)-2-(pyridin-2-yl-methoxycarbonyl)-succinamide], the inhibition constant (Ki) in assay [1] (setting [3]) stood at 0.1 nM. Also, the concentration for an effect of 90% (IC90) in assay [2] (setting [5]) is 101 to 1000 nM.

As to `CC(=O)Nc1ccc(S(=O)(=O)N(CC(C)C)CC(O)[C@H](Cc2ccccc2)NC(=O)C(CC(N)=O)C(=O)OCc2ccncc2)cc1` (stereo partly drawn) [Compound 23, N-1-(3-((4-Acetylamino-benzenesulfonyl)-isobutyl-amino)-(1S,2 syn)-1-benzyl-2-hydroxy-propyl)-2-(pyridin-4-yl-methoxycarbonyl)-succinamide], in assay [1] (setting [3]), the Ki was 1.5 nM. Further, the 90% effect concentration (IC90) in assay [2] (setting [5]) lay within 101 to 1000 nM.

Turning to `CC(C)CN(C[C@@H](O)[C@H](Cc1ccccc1)NC(=O)O[C@H]1CCOC1)S(=O)(=O)c1ccc(O)c(N)c1` [Compound 1004], the inhibition constant Ki in assay [1] (setting [3]) came to 0.2 nM. Further, the IC90 in assay [2] (setting [4]) is less than 100 nM.

`CC(C)CN(C[C@@H](O)[C@H](Cc1ccccc1)NC(=O)OC(C)(C)C)S(=O)(=O)c1ccccc1F` [Compound 47]: the Ki in assay [1] (setting [3]) was 4 nM. Also, in assay [2] (setting [4]), the IC90 lay within 1000 to 10000 nM.

In the case of `CC(C)CN(CC(O)[C@H](Cc1ccccc1)NC(=O)O[C@@H]1CCOC1)S(=O)(=O)c1ccc(F)cc1` (stereo partly drawn) [Compound 52, 4-Fluoro-N-((2 syn,3S)-2-hydroxy-4-phenyl-3-((R)-tetrahydrofuran-3-yloxycarbonylamino)-butyl)-N-isobutyl-benzenesulfonamide and 4-Fluoro-N-((2 syn,3S)-2-hydroxy-4-phenyl-3-((R)-tetrahydrofuran-3-yloxycarbonylamino)-butyl)-N-isobutyl-benzenesulfonamide], the inhibition constant Ki in assay [1] (setting [3]) turned out to be 0.4 nM. Further, the IC90 in assay [2] (setting [5]) is 101 to 1000 nM.

In the case of `CC(C)CN(C[C@@H](O)[C@H](Cc1ccccc1)NC(=O)O[C@H]1CCOC1)S(=O)(=O)c1ccc(N)cc1` [Compound 168, 4-Amino-N-((2 syn,3S)-2-Hydroxy-4-phenyl-3-((S)-tetrahydrofuran-3-yloxycarbonylamino)-butyl)-N-isobutyl-benzenesulfonamide], the IC90 in assay [2] (setting [6]) was less than 100 nM.

For `CC(C)CN(CC(O)[C@H](Cc1ccccc1)NC(=O)O[C@H]1CCOC1)S(=O)(=O)c1cccnc1` (stereo partly drawn) [Compound 144, Pyridine-3-sulfonic acid ((2 syn,3S)-2-hydroxy-4-phenyl-3-((S)-tetrahydrofuran-3-yloxycarbonylamino)-butyl)-isobutyl-amide, trifluoroacetic acid salt], the inhibition constant (Ki) in assay [1] (setting [3]) was 8 nM. The 90% effect concentration (IC90) in assay [2] (setting [5]) was in the range of 101 to 1000 nM.

In the case of `CC(C)CN(CC(O)[C@H](Cc1ccccc1)NC(=O)[C@H](CC(N)=O)NC(=O)c1ccc2ccccc2n1)S(=O)(=O)c1ccc(-c2ccccn2)s1` (stereo partly drawn) [Compound 12, (S)-N-1-(1-(S)-Benzyl-2-(syn)-hydroxyl-3-(isobutyl-(5-pyridin-2-yl-thiophene-2-sulfonyl)-amino)-propyl)-2-((quinoline-2-carbonyl)-amino)-succinamide], the inhibitory constant (Ki) in assay [1] (setting [3]) came out at 0.1 nM. For the same compound, the IC90 in assay [2] (setting [5]) was less than 100 nM.

Turning to `CC(=O)N1CCc2ccc(S(=O)(=O)N(CC3CCCC3)CC(O)[C@H](Cc3ccccc3)NC(=O)O[C@H]3CCOC3)cc21` (stereo partly drawn) [Compound 157, 1-Acetyl-2,3-dihydro-1H-indole-6-sulfonic acid cyclopentylmethyl-((2 syn, 3S)-2-hydroxy-4-phenyl-3-((S)-tetrahydrofuran-3-yloxycarbonylamino)-butyl)-amide], the Ki in assay [1] (setting [3]) stood at 0.7 nM. The concentration for an effect of 90% (IC90) in assay [2] (setting [5]) was 101 to 1000 nM.

The compound `Nc1ccc(S(=O)(=O)N(CC2CCCC2)C[C@@H](O)[C@H](Cc2ccccc2)NC(=O)O[C@H]2CCOC2)cc1N` [Compound 1015] had a Ki in assay [1] of 19 nM. Also, the IC90 in assay [2] (setting [6]) is less than 100 nM.

Take `CCC(C)C(NC(=O)c1cnc2ccccc2n1)C(=O)NC(Cc1ccccc1)C(O)CN(CC(C)C)S(=O)(=O)c1ccc(F)c(NC(C)=O)c1` (centres unmarked) [Compound 188]: the Ki in assay [1] (setting [3]) is 11.5 nM. Also, the 90% effect concentration (IC90) in assay [2] (setting [4]) lay within 1000 to 10000 nM.

Turning to `CC(C)CN(CC(O)C(Cc1ccccc1)NC(=O)OCC1CCOC1)S(=O)(=O)c1ccc(Cl)c(Cl)c1` (centres unmarked) [Compound 85], in assay [1] (setting [3]), the Ki was determined as 4 nM. In assay [2] (setting [4]), the IC90 fell in the range of 1000 to 10000 nM.

Regarding `CC(C)CN(C[C@@H](O)[C@H](Cc1ccccc1)NC(=O)O[C@H]1CCOC1)S(=O)(=O)c1ccc(Cl)cc1` [Compound 99, 4-Chloro-N-((2 syn,3S)-2-hydroxy-4-phenyl-3-((S)-tetrahydrofuran-3-yloxycarbonylamino)-butyl)-isobutyl-benzenesulfonamide], the inhibition constant Ki in assay [1] (setting [3]) is 0.24 nM.

On to `COc1ccc(S(=O)(=O)N(CC2CCCCC2)C[C@@H](O)[C@H](Cc2ccccc2)NC(=O)O[C@H]2CCOC2)cc1` [Compound 158, N-Cyclohexylmethyl-N-((2 syn,3S)-2-hydroxy-4-phenyl-3-((S)-tetrahydrofuran-3-yloxycarbonylamino)-butyl)-4-methoxy-benzenesulfonamide], for which the inhibition constant Ki in assay [1] (setting [3]) is less than 0.1 nM.

With `CCC(C)C(NC(=O)OCc1ccccc1)C(=O)NC(Cc1ccccc1)C(O)CN(CC(C)C)S(=O)(=O)c1ccc(F)c(NC(C)=O)c1` [Compound 187, Benzyloxycarbonyl-(L)-isoleucine-N-(5-((3-amino-(2 syn,3S)-2-hydroxy-4-phenyl-butyl)-isobutyl-sulfamoyl)-2-fluoro-phenyl)-acetamide], the Ki in assay [1] (setting [3]) is 0.3 nM. Moreover, the IC90 in assay [2] (setting [4]) lay within 101 to 1000 nM.
